Source: PubChem BioAssay (NCI)
Where “and” joins values, the source holds several entries; their conditions need not be identical. Identical values can stand only once.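 These data come from cells grown in 96-well plates and exposed to compound for 48 hours at five concentrations. Abbreviation: GI50, concentration required for 50% inhibition of growth. At the TGI there is no net growth.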

Assays:
Test in all cases: NCI-60 cell line screen, 48 h
[1] = tested on: NCI-H23 lung
[2] = tested on: NCI-H460 lung
[3] = tested on: NCI-H522 lung
[4] = tested on: NCI/ADR-RES ovarian
[5] = tested on: OVCAR-3 ovarian
[6] = tested on: OVCAR-5 ovarian
[7] = tested on: OVCAR-8 ovarian
[8] = tested on: PC-3 prostate
[9] = tested on: RPMI-8226 leukemia
[10] = tested on: RXF 393 renal
[11] = tested on: RXF-631 renal
[12] = tested on: SF-268 CNS
[13] = tested on: SF-295 CNS
[14] = tested on: SF-539 CNS
[15] = tested on: SK-MEL-2 melanoma
[16] = tested on: SK-MEL-28 melanoma
[17] = tested on: SK-MEL-5 melanoma
[18] = tested on: SK-OV-3 ovarian
[19] = tested on: SN12C renal
[20] = tested on: SNB-19 CNS
[21] = tested on: SNB-75 CNS
[22] = tested on: SNB-78 CNS
[23] = tested on: SR leukemia
[24] = tested on: SW-620 colon
[25] = tested on: T-47D breast
[26] = tested on: TK-10 renal
[27] = tested on: U251 CNS
[28] = tested on: UACC-257 melanoma
[29] = tested on: UACC-62 melanoma
[30] = tested on: UO-31 renal
[31] = tested on: XF 498 CNS

Q: With `C=C1C(=O)C23CC1CCC2C12CO[C@@]3(O)[C@@H](O)C1C(C)(C)C=CC2=O` (stereo not given in full) as the compound, how does the TGI [1] read?
A: 1.42 µM and 7.88 µM

Q: And the GI50 [2]?
A: 14.7 µM

Q: What about the TGI [3] of the same compound?
A: 4.09 µM

Q: And the TGI [4]?
A: 60.4 µM

Q: And the TGI [5]?
A: 2.75 µM

Q: And the GI50 [6]?
A: 25 µM

Q: And the TGI [6]?
A: 9.96 µM and 40.5 µM

Q: And the GI50 [7]?
A: 3.37 µM

Q: What about the TGI [8] of the same compound?
A: 7.53 µM

Q: And the TGI [9]?
A: 21.7 µM

Q: What about the TGI [10] of the same compound?
A: 1.34 µM

Q: And the TGI [11]?
A: 2.33 µM

Q: What about the GI50 [12] of the same compound?
A: 3.11 µM

Q: And the TGI [12]?
A: 6.77 µM and 11 µM

Q: And the GI50 [13]?
A: 18.1 µM

Q: And the TGI [13]?
A: 4.79 µM and 32 µM

Q: What about the GI50 [14] of the same compound?
A: 4.43 µM

Q: And the TGI [14]?
A: 1.8 µM and 13.4 µM

Q: What about the TGI [15] of the same compound?
A: 1.99 µM

Q: And the GI50 [16]?
A: 1.58 µM

Q: What about the TGI [16] of the same compound?
A: 1.48 µM and 3.35 µM

Q: What about the TGI [17] of the same compound?
A: 19.1 µM

Q: What about the GI50 [18] of the same compound?
A: 26.1 µM

Q: And the TGI [18]?
A: 13.7 µM and 54.5 µM

Q: What about the GI50 [19] of the same compound?
A: 2.03 µM

Q: And the TGI [19]?
A: 3.87 µM and 4.05 µM

Q: And the GI50 [20]?
A: 20.4 µM

Q: What about the GI50 [21] of the same compound?
A: 13.6 µM

Q: What about the TGI [21] of the same compound?
A: 12.7 µM and 26.4 µM

Q: What about the TGI [22] of the same compound?
A: 2.23 µM

Q: And the GI50 [23]?
A: 0.721 µM

Q: What about the TGI [23] of the same compound?
A: 43.6 µM and 16.1 µM

Q: And the TGI [24]?
A: 10.2 µM

Q: What about the TGI [25] of the same compound?
A: 33.1 µM

Q: What about the GI50 [26] of the same compound?
A: 4.51 µM

Q: And the TGI [26]?
A: 1.55 µM and 11.2 µM

Q: And the GI50 [27]?
A: 16.7 µM

Q: What about the TGI [27] of the same compound?
A: 5.15 µM and 33.3 µM

Q: What about the GI50 [28] of the same compound?
A: 2.49 µM

Q: And the TGI [28]?
A: 1.33 µM and 7.8 µM

Q: And the GI50 [29]?
A: 4.89 µM

Q: What about the TGI [29] of the same compound?
A: 2.37 µM and 19.3 µM

Q: What about the GI50 [30] of the same compound?
A: 8.37 µM

Q: What about the TGI [30] of the same compound?
A: 4.2 µM and 20.4 µM

Q: What about the TGI [31] of the same compound?
A: 1.42 µM
